Entries after “also recorded” stand apart in the source; their conditions may differ. Where two headings read alike, the source gives them in different places.
Columns and labels:
[1] = tested on: avian influenza virus A/FPV/Bratislava/79 (H7N7); type: cell-based; details: for virus titers: 18 hrs; for IV titers: 2 μM tamiflu vs Hepes, in absence or presence of S. aureus 6850
[2] = shown recently; cited from earlier work
[3] = tested on: Staphylococcus aureus 6850; test: mouse co-infection model, bacterial titers in lung homogenate; type: in vivo, Balb/C mice; details: S. aureus super-infection day 3, lungs day 4
Description: (§1) FIG. 17: Administration of U0126 leads to reduced bacterial titers in vivo independent of viral titers. 12 weeks old Balb/C mice were infected with 50 PFU of the influenza virus strain A/Puerto Rico/8/34 (PR8, H1N1) on day 0 (anesthesized with Isoflurane). Starting on day 1 mice were treated daily with i.p. injection of 30 mg/kg/day U0126 or solvent control (10% DMSO, 30% Cremophor EL, 60% PBS). On day 3 mice were infected with 5*10^7 CFU of Staphylococcus aureus 6850 under anesthesia with Isoflurane and directly treated with U0126 or solvent control. On day 4 lungs were removed and homogenized in PBS (0.1 g per 1000 μl PBS). For calculation of bacterial titers serial dilutions of the homogenate were plated on BHI agar. For determination of viral titers a standard plaque assay was performed. Statistical analysis was done using Mann-Whitney U Test (* p<0.05).
(§2) 8 weeks old Balb/C mice (5 per group) were infected with 50 PFU of influenza virus strain A/Puerto Rico/8/34 (PR8, H1N1) on day 0 (anesthesized with Isoflurane). 6 hrs post viral infection mice were treated with oral administration of 10 mg/kg/day Cobimetinib or solvent control (10% DMSO, 5% Tween 20, 85% PBS). Treatment was then performed daily. On day 3 mice were infected with 5*10^7 CFU of Staphylococcus aureus 6850 under anesthesia with Isoflurane and 6 hrs later treated with Cobimetinib or solvent control. […]

[4] = tested on: influenza virus strain A/Puerto Rico/8/34 (PR8, H1N1); test: mouse co-infection model, viral titers in lung homogenate (plaque assay); type: in vivo, Balb/C mice; details: lungs day 4
Description: as §1, §2

[5] = tested on: S. aureus 6850; type: cell-based, Staphylococcus aureus
[6] = tested on: influenza virus A/Puerto Rico/8/34 (H1N1); type: cell-based
[7] = tested on: CCL3; details: 50 μM U0126; H3N2 (MOI=5) with or without S. aureus 6850 (MOI=50); 8 hrs; preliminary results
[8] = tested on: viral protein (PB1)
[9] = tested on: S. aureus 6850; type: cell-based, Staphylococcus aureus; remark: listed apart in the source
[10] = tested on: ERK-1/2 phosphorylation; details: 50 μM U0126; western blot, 8 hrs
[11] = tested on: Human lung epithelial cells (A549); type: cell-based
[12] = tested on: CCL5; details: 50 μM U0126; H3N2 (MOI=5) with or without S. aureus 6850 (MOI=50); 8 hrs; preliminary results
[13] = tested on: S. aureus 6850; test: bacterial internalisation (uptake) into A549 cells after 4 h preincubation; details: 2.5 ng/ml TNF-alpha, stimulation 4 hours prior bacterial infection; 120 min
[14] = tested on: S. aureus USA300; test: as above; details: 2.5 ng/ml TNF-alpha, stimulation 4 hours prior bacterial infection; MOI=5; 120 min
[15] = […], U0126 50 μM, SB202190 10 μM or LG-ASA 5 mM vs solvent control
[16] = […], U0126 50 μM, SB202190 10 μM or LG-ASA 5 mM vs solvent control, listed as SB02190

Compound: O=C(NOCC1CC1)c1ccc(F)c(F)c1Nc1ccc(I)cc1Cl [CI-1040, 2-(2-chloro-4-iodophenylamino)-N-(cyclopropylmethoxy)-3,4-difluorobenzamide]
- virus titers ([1]; 10 μM CI-1040 vs solvent, singular and co-infection with S. aureus 6850 (MOI=0.1), MOI=0.01): reduction; also recorded: reduces

Compound: O=C(c1ccc(F)c(F)c1Nc1ccc(I)cc1F)N1CC(O)([C@@H]2CCCCN2)C1 [Cobimetinib, [3,4-difluoro-2-[(2-fluoro-4-iodophenyl)amino]phenyl] [3-hydroxy-3-[(2S)-2-piperidinyl]-1-azetidinyl]methanone]
- maximal tolerated dose [2]: 30 mg/kg/day
- bacterial titers in vivo (lung) ([3]; Cobimetinib 10 mg/kg/day oral, daily): slight but clearly detectable reduction; also recorded: reduces
- viral titers in vivo (lung) ([4]; Cobimetinib 10 mg/kg/day oral, daily from 6 hrs post viral infection): slight but clearly detectable reduction; also recorded: reduces

Compound: CCOC(=O)C1=C[C@@H](OC(CC)CC)[C@H](NC(C)=O)[C@@H](N)C1 [Oseltamivir]
- intracellular bacterial amounts (S. aureus load) [5]: rather increased; also recorded: enhances
- IV titers ([1]; MOI=0.001): significantly reduced
- IV titers ([1]; MOI=0.001, listed as tamiflu): reduces

Compound: Oc1ccc(-c2nc(-c3ccncc3)c(-c3ccc(F)cc3)[nH]2)cc1 [SB202190]
- IV replication (IV titers) [6, 15]: reduces
- viral titers in presence of S. aureus [6, 15]: reduces
- IV replication (IV titers) [6, 16]: inhibitory effects
- viral titers in presence of S. aureus [6, 16]: reduced

Compound: N#CC(=C(/N)Sc1ccccc1N)/C(C#N)=C(\N)Sc1ccccc1N [U0126]
- bacterial titers in vivo (lung) ([3]; U0126 30 mg/kg/day i.p. daily from day 1, 30 mg/kg/day): significantly reduced
- IAV-induced CCL3 mRNA synthesis [7]: reduced
- viral protein synthesis (PB1) [8]: reduction
- bacterial titers of internalized S. aureus 6850 [5]: only slightly decreased
- intracellular amounts of S. aureus (S. aureus load) [5]: reduces
- bacterial growth [9]: inhibited; also recorded: reduced
- bacterial titers without living cells [9]: reduced
- virus titers in vivo (lung) ([4]; U0126 30 mg/kg/day i.p. daily from day 1): fail of reduced virus titers
- virus titers ([1]; 50 μM U0126 vs solvent, co-infection with S. aureus 6850 (MOI=0.1)): reduced
- virus titers ([1]; 50 μM U0126 vs solvent, singular infection, MOI=0.01): significant reduction
- viral titers in presence of S. aureus ([1]; co-infection with S. aureus 6850 (MOI=0.5), virus MOI=0.001, 50 μM U0126 vs DMSO): reduces
- IV replication (IV titers) ([1]; singular infection, MOI=0.001, 50 μM U0126 vs DMSO): inhibitory effects; also recorded: reduces
- effect on MEK/ERK signalling (ERK1/2 phosphorylation) [10]: inhibitory effect
- cell damage of cell layer (cell morphology) [11]: much less damaged
- IV replication (IV titers) [6]: inhibitory effects; also recorded: reduces
- viral titers in presence of S. aureus [6]: reduces
- IAV-induced CCL5 mRNA synthesis [12]: further reduced

Compound: TNF-α
- bacterial uptake upon NFκB activation [13]: enhanced uptake
- bacterial uptake upon NFκB activation [14]: enhanced uptake

From patent US11135263B2 (priority 2014, dated 2021)
